Measured values from patent US8546375B2, “(3-(4-(aminomethyl)phenoxy or phenylthio)azetidin-1-yl)(5-phenyl-1,3,4-oxadiazol-2-yl)methanone compounds” (AstraZeneca AB, priority 2010, dated 2013).
Read-outs that look alike come from different tables or passages of the source.

Columns and labels:
[1] = target: T1, Melanin Concentrating Hormone Receptor 1 (MCHR1) (Homo sapiens, UniProt Q99705); test: MCHR1 Receptor Activation Assay (GTPγ^35S); assay type: biochemical
T1 construct: expressed in transfected cells
T1 sequence (Q99705 whole entry): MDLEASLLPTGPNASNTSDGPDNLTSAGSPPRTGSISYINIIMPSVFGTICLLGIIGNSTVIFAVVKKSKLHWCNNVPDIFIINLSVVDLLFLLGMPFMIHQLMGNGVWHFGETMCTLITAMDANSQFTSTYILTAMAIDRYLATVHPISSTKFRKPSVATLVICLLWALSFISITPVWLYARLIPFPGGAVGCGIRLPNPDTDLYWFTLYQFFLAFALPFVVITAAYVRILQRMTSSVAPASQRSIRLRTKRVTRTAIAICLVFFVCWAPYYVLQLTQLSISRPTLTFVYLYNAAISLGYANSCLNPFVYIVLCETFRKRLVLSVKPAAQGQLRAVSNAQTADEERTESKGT

Cc1cc(OC2CN(C(=O)c3nnc(-c4ccccc4)o3)C2)ccc1CN(C)C [Example 21, (3-(4-((Dimethylamino)methyl)-3-methylphenoxy)azetidin-1-yl)(5-phenyl-1,3,4-oxadiazol-2-yl)methanone]
IC50 ([1]; read-out: GTPγ^35S IC50): 0.022 µM | melting point: 135 °C

CCC1(O)CN(Cc2ccc(OC3CN(C(=O)c4nnc(-c5ccc(OC)cc5)o4)C3)cc2)C1 [Example 70, (3-(4-((3-Ethyl-3-hydroxyazetidin-1-yl)methyl)phenoxy)azetidin-1-yl)(5-(4-methoxyphenyl)-1,3,4-oxadiazol-2-yl)methanone]
IC50 ([1]; read-out: GTPγ^35S IC50): 0.02 µM

CCC1(O)CN(Cc2ccc(OC3CN(C(=O)c4nnc(-c5ccccc5)o4)C3)cc2)C1 [Example 71, (3-(4-((3-Ethyl-3-hydroxyazetidin-1-yl)methyl)phenoxy)azetidin-1-yl)(5-phenyl-1,3,4-oxadiazol-2-yl)methanone]
IC50 ([1]; read-out: GTPγ^35S IC50): 0.023 µM

CCC1(O)CN(Cc2ccc(OC3CN(C(=O)c4nnc(-c5ccc(OC)cc5)o4)C3)c(C)c2)C1 [Example 72, (3-(4-((3-Ethyl-3-hydroxyazetidin-1-yl)methyl)-2-methylphenoxy)azetidin-1-yl)(5-(4-methoxyphenyl)-1,3,4-oxadiazol-2-yl)methanone]
IC50 ([1]; read-out: GTPγ^35S IC50): 0.015 µM

CCC1(O)CN(Cc2ccc(OC3CN(C(=O)c4nnc(-c5ccc(OC)cc5)o4)C3)cc2C)C1 [Example 73, (3-(4-((3-Ethyl-3-hydroxyazetidin-1-yl)methyl)-3-methylphenoxy)azetidin-1-yl)(5-(4-methoxyphenyl)-1,3,4-oxadiazol-2-yl)methanone]
IC50 ([1]; read-out: GTPγ^35S IC50): 0.014 µM

CCC1(O)CN(Cc2ccc(OC3CN(C(=O)c4nnc(-c5ccccc5)o4)C3)c(C)c2)C1 [Example 74, (3-(4-((3-Ethyl-3-hydroxyazetidin-1-yl)methyl)-2-methylphenoxy)azetidin-1-yl)(5-phenyl-1,3,4-oxadiazol-2-yl)methanone]
IC50 ([1]; read-out: GTPγ^35S IC50): 0.018 µM

CCC1(O)CN(Cc2ccc(OC3CN(C(=O)c4nnc(-c5ccccc5)o4)C3)cc2C)C1 [Example 75, (3-(4-((3-Ethyl-3-hydroxyazetidin-1-yl)methyl)-3-methylphenoxy)azetidin-1-yl)(5-phenyl-1,3,4-oxadiazol-2-yl)methanone]
IC50 ([1]; read-out: GTPγ^35S IC50): 0.017 µM

COc1ccc(-c2nnc(C(=O)N3CC(Oc4ccc(CN5CC(C)(O)C5)cc4)C3)o2)cc1 [Example 76, (3-(4-((3-Hydroxy-3-methylazetidin-1-yl)methyl)phenoxy)azetidin-1-yl)(5-(4-methoxyphenyl)-1,3,4-oxadiazol-2-yl)methanone]
IC50 ([1]; read-out: GTPγ^35S IC50): 0.023 µM

CC1(O)CN(Cc2ccc(OC3CN(C(=O)c4nnc(-c5ccccc5)o4)C3)cc2)C1 [Example 77, (3-(4-((3-Hydroxy-3-methylazetidin-1-yl)methyl)phenoxy)azetidin-1-yl)(5-phenyl-1,3,4-oxadiazol-2-yl)methanone]
IC50 ([1]; read-out: GTPγ^35S IC50): 0.04 µM

CC1(O)CN(Cc2ccc(OC3CN(C(=O)c4nnc(-c5ccccc5)o4)C3)c(Cl)c2)C1 [Example 78, (3-(2-Chloro-4-((3-hydroxy-3-methylazetidin-1-yl)methyl)phenoxy)azetidin-1-yl)(5-phenyl-1,3,4-oxadiazol-2-yl)methanone]
IC50 ([1]; read-out: GTPγ^35S IC50): 0.042 µM

COc1ccc(-c2nnc(C(=O)N3CC(Oc4ccc(CN5CC(C)(O)C5)cc4Cl)C3)o2)cc1 [Example 79, (3-(2-Chloro-4-((3-hydroxy-3-methylazetidin-1-yl)methyl)phenoxy)azetidin-1-yl)(5-(4-methoxyphenyl)-1,3,4-oxadiazol-2-yl)methanone]
IC50 ([1]; read-out: GTPγ^35S IC50): 0.034 µM

COc1ccc(-c2nnc(C(=O)N3CC(Oc4ccc(CN5CC(C)(O)C5)c(C)c4)C3)o2)cc1 [Example 80, (3-(4-((3-Hydroxy-3-methylazetidin-1-yl)methyl)-3-methylphenoxy)azetidin-1-yl)(5-(4-methoxyphenyl)-1,3,4-oxadiazol-2-yl)methanone]
IC50 ([1]; read-out: GTPγ^35S IC50): 0.023 µM

COc1ccc(-c2nnc(C(=O)N3CC(Oc4ccc(CN5CCC(F)(CO)CC5)cc4)C3)o2)cc1 [Example 81, (3-(4-((4-Fluoro-4-(hydroxymethyl)piperidin-1-yl)methyl)phenoxy)azetidin-1-yl)(5-(4-methoxyphenyl)-1,3,4-oxadiazol-2-yl)methanone]
IC50 ([1]; read-out: GTPγ^35S IC50): 0.025 µM

COc1ccc(-c2nnc(C(=O)N3CC(Oc4ccc(CN5CCC(C)(CO)CC5)c(C)c4)C3)o2)cc1 [Example 82, (3-(4-((4-(Hydroxymethyl)-4-methylpiperidin-1-yl)methyl)-3-methylphenoxy)azetidin-1-yl)(5-(4-methoxyphenyl)-1,3,4-oxadiazol-2-yl)methanone]
IC50 ([1]; read-out: GTPγ^35S IC50): 0.022 µM

COc1ccc(-c2nnc(C(=O)N3CC(Oc4ccc(CN5CCC(C)(CO)CC5)cc4)C3)o2)cc1 [Example 83, (3-(4-((4-(Hydroxymethyl)-4-methylpiperidin-1-yl)methyl)phenoxy)azetidin-1-yl)(5-(4-methoxyphenyl)-1,3,4-oxadiazol-2-yl)methanone]
IC50 ([1]; read-out: GTPγ^35S IC50): 0.025 µM

COc1ccc(-c2nnc(C(=O)N3CC(Oc4ccc(CN5CCC(C)(CO)C5)cc4)C3)o2)cc1 (centres unmarked) [Example 84, (3-(4-((3-(hydroxymethyl)-3-methylpyrrolidin-1-yl)methyl)phenoxy)azetidin-1-yl)(5-(4-methoxyphenyl)-1,3,4-oxadiazol-2-yl)methanone]
IC50 ([1]; read-out: GTPγ^35S IC50): 0.017 µM

CC1(CO)CCN(Cc2ccc(OC3CN(C(=O)c4nnc(-c5ccccc5)o4)C3)cc2)C1 (centres unmarked) [Example 85, (3-(4-((3-(hydroxymethyl)-3-methylpyrrolidin-1-yl)methyl)phenoxy)azetidin-1-yl)(5-phenyl-1,3,4-oxadiazol-2-yl)methanone]
IC50 ([1]; read-out: GTPγ^35S IC50): 0.019 µM

COc1ccc(-c2nnc(C(=O)N3CC(Oc4ccc(CN5CCCC(O)CC5)cc4)C3)o2)cc1 (centres unmarked) [Example 86, (3-(4-((4-hydroxyazepan-1-yl)methyl)phenoxy)azetidin-1-yl)(5-(4-methoxyphenyl)-1,3,4-oxadiazol-2-yl)methanone]
IC50 ([1]; read-out: GTPγ^35S IC50): 0.015 µM

CC1(O)CCCN(Cc2ccc(OC3CN(C(=O)c4nnc(-c5ccccc5)o4)C3)cc2)CC1 (centres unmarked) [Example 87, (3-(4-((4-hydroxy-4-methylazepan-1-yl)methyl)phenoxy)azetidin-1-yl)(5-phenyl-1,3,4-oxadiazol-2-yl)methanone]
IC50 ([1]; read-out: GTPγ^35S IC50): 0.0081 µM

COc1ccc(-c2nnc(C(=O)N3CC(Oc4ccc(CN5CCCC(C)(O)CC5)cc4)C3)o2)cc1 (centres unmarked) [Example 88, (3-(4-((4-hydroxy-4-methylazepan-1-yl)methyl)phenoxy)azetidin-1-yl)(5-(4-methoxyphenyl)-1,3,4-oxadiazol-2-yl)methanone]
IC50 ([1]; read-out: GTPγ^35S IC50): 0.017 µM

COc1ccc(-c2nnc(C(=O)N3CC(Oc4ccc(CN5CCC(CO)CC5)cc4)C3)o2)cc1 [Example 89, (3-(4-((4-(hydroxymethyl)piperidin-1-yl)methyl)phenoxy)azetidin-1-yl)(5-(4-methoxyphenyl)-1,3,4-oxadiazol-2-yl)methanone]
IC50 ([1]; read-out: GTPγ^35S IC50): 0.022 µM

COc1ccc(-c2nnc(C(=O)N3CC(Oc4ccc(CN5CCC(C)(CO)C5)cc4C)C3)o2)cc1 (centres unmarked) [Example 90, (3-(4-((3-(hydroxymethyl)-3-methylpyrrolidin-1-yl)methyl)-2-methylphenoxy)azetidin-1-yl)(5-(4-methoxyphenyl)-1,3,4-oxadiazol-2-yl)methanone]
IC50 ([1]; read-out: GTPγ^35S IC50): 0.016 µM

COc1ccc(-c2nnc(C(=O)N3CC(Oc4ccc(CN5CCC(C)(CO)C5)c(C)c4)C3)o2)cc1 (centres unmarked) [Example 91, (3-(4-((3-(hydroxymethyl)-3-methylpyrrolidin-1-yl)methyl)-3-methylphenoxy)azetidin-1-yl)(5-(4-methoxyphenyl)-1,3,4-oxadiazol-2-yl)methanone]
IC50 ([1]; read-out: GTPγ^35S IC50): 0.011 µM

CCC1(CO)CCN(Cc2ccc(OC3CN(C(=O)c4nnc(-c5ccc(OC)cc5)o4)C3)cc2)CC1 [Example 92, (3-(4-((4-Ethyl-4-(hydroxymethyl)piperidin-1-yl)methyl)phenoxy)azetidin-1-yl)(5-(4-methoxyphenyl)-1,3,4-oxadiazol-2-yl)methanone]
IC50 ([1]; read-out: GTPγ^35S IC50): 0.015 µM

Cc1cc(OC2CN(C(=O)c3nnc(-c4ccccc4)o3)C2)ccc1CN(C1CC1)C1CC1 [[3-[4-[(dicyclopropylamino)methyl]-3-methyl-phenoxy]azetidin-1-yl]-(5-phenyl-1,3,4-oxadiazol-2-yl)methanone]
IC50 ([1]; when tested in the above referenced assays (MCH binding assay; MCHR1 receptor activation assay), read-out: IC50 value): ≥ 0.1 µM
